According to patent publication US20230181905A1, “Systems, Devices, and Methods for Enhancing the Neuroprotective Effects of Non-Invasive Gamma Stimulation with Pharmacological Agents” (Massachusetts Institute of Technology, priority 2021, published 2023):

What was measured:
vGAT = vGAT synaptic puncta immunohistochemistry; format: in vivo, mouse; conditions: 5×FAD mice, visual cortex
Method: Loss of synapses and neurons are closely associated with higher neuroinflammatory response and cognitive decline in AD. Therefore, synaptic markers in the visual cortex of Plx3397 and/or GENUS treated mice were evaluated. […] Thus, whether these treatments had any effect on neuronal density by immunohistochemical analysis of neuronal marker NeuN was examined (Synaptic Systems, #266 004) positive cells (FIG. 4A).
vGAT and vGLUT1 puncta: LSM 710, with a 40× objective, was used to acquire the images. The entire […] thickness of the slices was acquired in Z stacks—80 per image (step of 0.5 μm). The spot-count inbuilt function in Imarisx64 9.3 was used to count cells automatically.
vGAT and vGLUT1 puncta: LSM 710, with a 40× objective, was used to acquire the images. The entire […] thickness of the slices was acquired in Z stacks—80 per image (step of 0.5 μm). The spot-count inbuilt function in Imarisx64 9.3 (cohortl) and 9.7 (cohort 2) was used to count cells automatically.

[1] = system: myelin basic protein (MBP); assay: MBP levels and myelination of PV axons; format: in vivo, mouse; conditions: 5×FAD mice
Description: It was next sought to understand whether Plx3397 administration-dependent electrophysiological alterations were attributed to changes in amyloid plaque levels. […] In the cuprizone model of demyelination, Plx33977 administration preserved myelin. It was thus considered whether electrophysiological alterations are associated with myelin levels in Plx3397 treated 5×FAD mice.
These observations point to synaptic connectivity, PNN extracellular architecture, and myelination as biological processes that GENUS impacts to improve the outcomes in Plx3397 administered 5×FAD mice. To further validate this, additional biochemical analyses were performed. […] Next, it was observed that Plx3397 (130.4±7.178), GENUS (116.2±5.225) and Plx3397+GENUS (119.0±6.325) all increased the WFA signals with the highest levels in Plx3397 alone group compared to controls (100±4.655) (FIGS. 25D, 25F). […] Synaptic input arriving within the PNN of parvalbumin (PV) interneurons and the PNN architecture are shown to modulate the activity of PV interneurons robustly. […] Next, although the total MBP levels was not affected (100±19.58, 132.4±30.10, 140.2±25.31, & 133.4±22.13 in control, Plx3397, GENUS, Plx3397+Genus groups, respectively), GENUS increased myelin ensheathment of axons of PV interneurons in Plx3397 administered 5×AFAD mice (20.75±1.45, 25.44±2.83, 37.91±4.56, & 31.3±3.21) (FIGS. 25D, 25H, 25I and FIG. 30C). Collectively, these findings show improved synaptic connectivity and axonal myelination of PV interneurons after repeated GENUS in Plx3397 administered 5×FAD mice.

Structure (SMILES): FC(F)(F)c1ccc(CNc2ccc(Cc3c[nH]c4ncc(Cl)cc34)cn2)cn1 [Plx3397, Pexidartinib]
- vGAT synaptic puncta (vGAT; IHC): 109.9±2.235 % of no treatment control
- vGAT positive synaptic puncta (vGAT; vs untreated): significant increase
- MBP levels ([1]; hippocampus, chronic Plx3397 vs control): did not affect
- overall MBP signals ([1]; visual cortex, Plx3397 50 days, not significantly affected): 953800000±1277515477 au
- total MBP levels ([1]; western blot, control 100±19.58, not affected): 132.4±30.10
- myelin ensheathment of axons of PV interneurons ([1]; control 20.75±1.45): 25.44±2.83
